Literature values as cited in patent publication US20230117236A1 (priority 2021, published 2023).

Test system: SARS-CoV-2
Details: treatment with 24 ppm of chlorine dioxide; within 10 seconds

For `[O][Cl+][O-]` [chlorine dioxide], the SARS-CoV-2 inactivated is listed as “more than 99.99%”.
